Test [1] addresses T1, Mushroom tyrosinase (Agaricus bisporus, UniProt O42713+Q00024+C7FF04+C7FF05).
Description: Inhibition of mushroom tyrosinase using L-DOPA as substrate
The target of test [2] is T1, Mushroom tyrosinase. The source holds these as a separate data set.
Description: Inhibition of mushroom tyrosinase using L-tyrosine as substrate
Test [3] concerns the target Mushroom tyrosinase (Agaricus bisporus) (UniProt O42713+Q00024+C7FF04+C7FF05). The test is described as follows: Reversible inhibition of mushroom tyrosinase using L-DOPA as substrate by Lineweaver-Burk plot analysis.
Test [4] has as its target T1, Mushroom tyrosinase. Put plainly: Non-competitive inhibition of mushroom tyrosinase using L-DOPA as substrate by Lineweaver-Burk blot analysis.

The structures appear in SMILES notation. Activity calls are given as the source filed them. The calls are words filed in the database; no cut-off is given here. Some results are limits rather than exact numbers.

For orientation: IC50 means the midpoint of a concentration-inhibition curve. In the case of `C#CCOC1O[C@@H]2CO[C@@H](c3ccccc3)O[C@H]2[C@H](O)[C@H]1O` (stereo partly specified), the IC50 in test [1] and in test [2] was > 500 µM each time.

Consider `C#CCOC1O[C@H](COC(C)=O)[C@@H](OCc2ccccc2)[C@H](OCc2ccccc2)[C@H]1OCc1ccccc1` (stereo partly specified), for which the IC50 in test [1] was > 500 µM; in test [2], 461 µM.

For `C#CCOC1O[C@H](COC)[C@@H](OCc2ccccc2)[C@H](OCc2ccccc2)[C@H]1OCc1ccccc1` (stereo partly specified), the IC50 in test [1] and in test [2] was > 500 µM in each case.

In the case of `C#CCCOC1O[C@H](COC(C)=O)[C@@H](OCc2ccccc2)[C@H](OCc2ccccc2)[C@H]1OCc1ccccc1` (stereo partly specified), the results for the IC50 in test [1] and in test [2] were > 500 µM and 268 µM, respectively.

In the case of `CC#CCO[C@@H]1O[C@H](COCc2ccccc2)[C@@H](OCc2ccccc2)[C@H](OCc2ccccc2)[C@H]1OCc1ccccc1`, the IC50 is > 500 µM in test [1] and 179 µM in test [2].

For `COC[C@H]1OC(OCc2ccccc2)[C@H](OCc2ccccc2)[C@@H](OCc2ccccc2)[C@@H]1OCc1ccccc1` (stereo partly specified), the results for the IC50 in test [1] and in test [2] were 435 µM and > 500 µM, respectively.

As to `C#CCCO[C@@H]1O[C@@H]2CO[C@@H](c3ccccc3)O[C@H]2[C@H](OCc2ccccc2)[C@H]1OCc1ccccc1`, the IC50 in test [1] and in test [2] was > 500 µM each time.

With `C#CCCCOC1O[C@H](CO)[C@@H](OCc2ccccc2)[C@H](OCc2ccccc2)[C@H]1OCc1ccccc1` (stereo partly specified), the IC50 in test [1] and in test [2] was > 500 µM each time.

As to `C#CCO[C@@H]1O[C@H](COCc2ccccc2)[C@@H](OCc2ccccc2)[C@H](OCc2ccccc2)[C@H]1OCc1ccccc1`, the values for the IC50 in test [1] and in test [2] were > 500 µM and 94.7 µM, respectively.

As to `CC#CCO[C@@H]1O[C@@H]2CO[C@@H](c3ccccc3)O[C@H]2[C@H](OCc2ccccc2)[C@H]1OCc1ccccc1`, the IC50 in test [1] and in test [2] was > 500 µM each time.

`C#CCCO[C@H]1O[C@@H]2CO[C@@H](c3ccccc3)O[C@H]2[C@H](OCc2ccccc2)[C@H]1OCc1ccccc1`: the IC50 in test [1] and in test [2] was > 500 µM in each case.

Turning to `COC[C@H]1O[C@H](OC)[C@H](OCc2ccccc2)[C@@H](OCc2ccccc2)[C@@H]1OCc1ccccc1`, the IC50 was 494 µM in test [1] and > 500 µM in test [2].

With `CC#CCOC1O[C@@H]2CO[C@@H](c3ccccc3)O[C@H]2[C@H](OCc2ccccc2)[C@H]1OCc1ccccc1` (stereo partly specified), the IC50 in test [1] and in test [2] was > 500 µM each time.

As for `C#CCOC1O[C@H](CO)[C@@H](OCc2ccccc2)[C@H](OCc2ccccc2)[C@H]1OCc1ccccc1` (stereo partly specified), the IC50 in test [1] and in test [2] was > 500 µM throughout.

Regarding `CC(=O)OC[C@H]1OC(OCc2ccccc2)[C@H](OCc2ccccc2)[C@@H](OCc2ccccc2)[C@@H]1OCc1ccccc1` (stereo partly specified), the IC50 in test [1] was determined as 357 µM; in test [2] it was 273 µM.

The term Ki denotes the equilibrium dissociation constant of an inhibitor or competing ligand from its target. For the compound `CC#CCOC1O[C@H](COC)[C@@H](OCc2ccccc2)[C@H](OCc2ccccc2)[C@H]1OCc1ccccc1` (stereo partly specified), the IC50 in test [1] amounted to 45.4 µM; in test [2] it was 73.6 µM. Moreover, the inhibition entry in test [3] is “Active”. In test [4], this compound registered a Ki of 52 µM.

Consider `CC#CCOC[C@H]1OC(OC)[C@H](OCc2ccccc2)[C@@H](OCc2ccccc2)[C@@H]1OCc1ccccc1` (stereo partly specified), for which the IC50 in test [1] was > 500 µM; in test [2], 274 µM.

As to `C#CCCOC1O[C@H](COCc2ccccc2)[C@@H](OCc2ccccc2)[C@H](OCc2ccccc2)[C@H]1OCc1ccccc1` (stereo partly specified), the IC50 in test [1] was 34.3 µM; in test [2], 150 µM. Further, the inhibition entry in test [3] is “Active”. In test [4], the Ki came to 49 µM.

For `c1ccc(COC[C@H]2OC(OCc3ccccc3)[C@H](OCc3ccccc3)[C@@H](OCc3ccccc3)[C@@H]2OCc2ccccc2)cc1` (stereo partly specified), the IC50 in test [1] and in test [2] was > 500 µM throughout.

`C#CCOC1O[C@@H]2CO[C@@H](c3ccccc3)O[C@H]2[C@H](OCc2ccccc2)[C@H]1OCc1ccccc1` (stereo partly specified): the results for the IC50 in test [1] and in test [2] were 383 µM and > 500 µM, respectively.

Turning to `CC#CCOC1O[C@H](COC(C)=O)[C@@H](OCc2ccccc2)[C@H](OCc2ccccc2)[C@H]1OCc1ccccc1` (stereo partly specified), the IC50 stood at 400 µM in test [1] and 219 µM in test [2].

On to `C#CCO[C@H]1O[C@@H]2CO[C@@H](c3ccccc3)O[C@H]2[C@H](OCc2ccccc2)[C@H]1OCc1ccccc1`, for which the IC50 in test [1] was 431 µM; in test [2], > 500 µM.

Turning to `C#CCOC[C@H]1OC(OCc2ccccc2)[C@H](OCc2ccccc2)[C@@H](OCc2ccccc2)[C@@H]1OCc1ccccc1` (stereo partly specified), the IC50 is > 500 µM in test [1] and 205 µM in test [2].

Consider `CC#CCOC1O[C@@H]2CO[C@@H](c3ccccc3)O[C@H]2[C@H](O)[C@H]1O` (stereo partly specified), for which the IC50 in test [1] and in test [2] was > 500 µM throughout.

As for `CO[C@H]1O[C@H](COCc2ccccc2)[C@@H](OCc2ccccc2)[C@H](OCc2ccccc2)[C@H]1OCc1ccccc1`, the concentration for half-maximal inhibition (IC50) was > 500 µM in test [1] and 191 µM in test [2].

Turning to `C#CCOC1O[C@H](COCC#CC)[C@@H](OCc2ccccc2)[C@H](OCc2ccccc2)[C@H]1OCc1ccccc1` (stereo partly specified), the IC50 in test [1] and in test [2] was > 500 µM each time.

With `C#CCCOC1O[C@@H]2CO[C@@H](c3ccccc3)O[C@H]2[C@H](OCc2ccccc2)[C@H]1OCc1ccccc1` (stereo partly specified), the IC50 in test [1] is 257 µM; in test [2], > 500 µM.

Turning to `CC#CCOC[C@H]1OC(OCc2ccccc2)[C@H](OCc2ccccc2)[C@@H](OCc2ccccc2)[C@@H]1OCc1ccccc1` (stereo partly specified), the IC50 in test [1] and in test [2] was > 500 µM throughout.

Turning to `CC#CCO[C@H]1O[C@H](COCc2ccccc2)[C@@H](OCc2ccccc2)[C@H](OCc2ccccc2)[C@H]1OCc1ccccc1`, the IC50 in test [1] was > 500 µM; in test [2] it was 321 µM.

Consider `CO[C@H]1O[C@H](COC(C)=O)[C@@H](OCc2ccccc2)[C@H](OCc2ccccc2)[C@H]1OCc1ccccc1`, for which the IC50 in test [1] and in test [2] was > 500 µM in each case.

Regarding `C#CCCOC1O[C@H](CO)[C@@H](OCc2ccccc2)[C@H](OCc2ccccc2)[C@H]1OCc1ccccc1` (stereo partly specified), the IC50 in test [1] and in test [2] was > 500 µM in each case.

Regarding `C#CCOC[C@H]1O[C@H](OC)[C@H](OCc2ccccc2)[C@@H](OCc2ccccc2)[C@@H]1OCc1ccccc1`, the IC50 in test [1] and in test [2] was > 500 µM each time.

`CO[C@H]1O[C@H](CO)[C@@H](OCc2ccccc2)[C@H](OCc2ccccc2)[C@H]1OCc1ccccc1`: the IC50 in test [1] and in test [2] was > 500 µM each time.

As for `C#CCOC[C@H]1OC(OCC#CC)[C@H](OCc2ccccc2)[C@@H](OCc2ccccc2)[C@@H]1OCc1ccccc1` (stereo partly specified), the IC50 in test [1] was 288 µM; in test [2] it was > 500 µM.

On to `C#CCO[C@@H]1O[C@@H]2CO[C@@H](c3ccccc3)O[C@H]2[C@H](OCc2ccccc2)[C@H]1OCc1ccccc1`, for which the IC50 in test [1] and in test [2] was > 500 µM in each case.

Consider `C#CCCCOC1O[C@H](COC)[C@@H](OCc2ccccc2)[C@H](OCc2ccccc2)[C@H]1OCc1ccccc1` (stereo partly specified), for which the IC50 in test [1] and in test [2] was > 500 µM in each case.

Regarding `C#CCCCOC1O[C@H](COCc2ccccc2)[C@@H](OCc2ccccc2)[C@H](OCc2ccccc2)[C@H]1OCc1ccccc1` (stereo partly specified), the IC50 is > 500 µM in test [1] and 105 µM in test [2].

In the case of `C#CCO[C@H]1O[C@H](COCc2ccccc2)[C@@H](OCc2ccccc2)[C@H](OCc2ccccc2)[C@H]1OCc1ccccc1`, the IC50 in test [1] and in test [2] was > 500 µM throughout.

Regarding `C#CCCOC1O[C@@H]2CO[C@@H](c3ccccc3)O[C@H]2[C@H](O)[C@H]1O` (stereo partly specified), the IC50 was found to be 207 µM in test [1] and 463 µM in test [2].

Regarding `C#CCCCOC1O[C@H](COC(C)=O)[C@@H](OCc2ccccc2)[C@H](OCc2ccccc2)[C@H]1OCc1ccccc1` (stereo partly specified), the results for the IC50 in test [1] and in test [2] were > 500 µM and 208 µM, respectively.

In the case of `CC#CCO[C@H]1O[C@@H]2CO[C@@H](c3ccccc3)O[C@H]2[C@H](OCc2ccccc2)[C@H]1OCc1ccccc1`, the IC50 in test [1] and in test [2] was > 500 µM in each case.

For `OC[C@H]1OC(OCc2ccccc2)[C@H](OCc2ccccc2)[C@@H](OCc2ccccc2)[C@@H]1OCc1ccccc1` (stereo partly specified), the IC50 in test [1] and in test [2] was > 500 µM each time.

Take `C#CCCOC1O[C@H](COC)[C@@H](OCc2ccccc2)[C@H](OCc2ccccc2)[C@H]1OCc1ccccc1` (stereo partly specified): the IC50 in test [1] and in test [2] was > 500 µM throughout.

Turning to `C#CCOC[C@H]1OC(OCC#C)[C@H](OCc2ccccc2)[C@@H](OCc2ccccc2)[C@@H]1OCc1ccccc1` (stereo partly specified), the IC50 in test [1] and in test [2] was > 500 µM each time.

For the compound `CC#CCOC1O[C@H](CO)[C@@H](OCc2ccccc2)[C@H](OCc2ccccc2)[C@H]1OCc1ccccc1` (stereo partly specified), the values for the IC50 in test [1] and in test [2] were 80.4 µM and > 500 µM, respectively.

For `C#CCOC1O[C@H](COCc2ccccc2)[C@@H](OCc2ccccc2)[C@H](OCc2ccccc2)[C@H]1OCc1ccccc1` (stereo partly specified), the IC50 is > 500 µM in test [1] and 81.9 µM in test [2].

Values taken from ChEMBL document CHEMBL4622892, “New class of alkynyl glycoside analogues as tyrosinase inhibitors” (Bioorg Med Chem Lett, 2020).
